This is an account of results in patent US5786344A, “Camptothecin drug combinations and methods with reduced side effects” (priority 1995, dated 1998).

One series relates to DNA topoisomerase 1. To be noted: cited from earlier work.
The subject of another series is tumors. The following applies: sodium salt vs closed lactone; cited from earlier work.
For series [1] the following is noted: sodium salt; cited from earlier work.
For series [2] the following is noted: gastrointestinal tract or solution; cited from earlier work.
In series [3] the test system is O . volvulus microfilaria. To be noted: cited from earlier work.
The conditions of series [4]: cited from earlier work.
Series [5] relates to p-glycoprotein. To be noted: mouse, in vivo; cited from earlier work.
A further series concerns glucuronosyltransferase. The following applies: cited from earlier work.
Series [6] concerns p-glycoprotein. To be noted: cited from earlier work.
In series [7] the test system is p-glycoprotein. To be noted: cited from earlier work. The source holds these as a separate data set.
The test system of series [8] is multi-drug resistance (MDR) P388 cells. The following applies: cited from earlier work.
For series [9] the following is noted: rats, 24 h; cited from earlier work.
Series [10] concerns p-glycoprotein. The following applies: rat, in vivo. On the procedure:
Animal protocol: Female Wistar rats (~200 gm) having a permanent catheter installed in the right jugular vein were obtained from Charles River Breeding Laboratories (Wilmington, Mass.).
The catheter was flushed with 500 μl of physiologic saline after each drug administration.
After each sample the catheter was flushed with an equal volume of physiologic saline. The samples were immediately centrifuged at 2500×g for 10 minutes and the plasma obtained was stored at -70° C. until analysis.
Data Analysis: The plasma concentration-time profile of the control and pretreated groups of rats were analyzed using non-compartmental methods (PCNONLIN, SCI, Lexington, Ky.). […] The nonparametric Mann-Whitney test was used to test for differences in AUC between the control and pretreated groups.

Series [11] can be described thus: Phase I pharmacokinetics of CPT-11, SN-38 and SN-38G in plasma/urine after 90 min iv infusion. As to the method:
All patients met the standard laboratory criteria including criteria for adequate organ function. Informed, written consent was obtained from all patients prior to their first dose of CPT-11. The drug was given in 500 cc normal saline by intravenous infusion over 90 minutes on a weekly basis for four doses in a sixweek cycle. […] A second cycle was given with the same dose and schedule used during cycle 1. […] Patients who experienced dose limiting neutropenia were eligible to receive G-CSF at 5 μg/kg/day according to the criteria defined below.
To determine drug and metabolite levels, heparinized blood samples obtained on the first cycle of therapy, were centrifuged and the plasma was stored at -70° C. until analysis. CPT (camptothecin, 1 μg/ml, obtained from the National Cancer Institute, Bethesda, Md.) was used as an internal standard. One hundred μl of plasma was extracted with 2 ml of methanol, centrifuged at 2500×g for 10 min and the supernatant was evaporated to dryness. Reconstitution was done with 200 μl of methanol containing 0.1% 10M HCL (pH~2.0). For the estimation of SN-38G, plasma samples were extracted as described above. Prior to reconstitution, the samples were incubated with 1000 U of glucuronidase (Sigma Chemical Co., St. Louis, Mo.) for 2 hours at 37° C.
Analysis was done using a C18 column (μBondapak, 10 μm, 3.9×300 mm; Waters Associates, Milford, Mass.) preceded by a Novapak C18 guard column. […] Detection was monitored by a Hitachi F1050 Fluorescence detector (Hitachi Instruments Inc., Naperville, Ill.) with a λex at 375 nm and λem at 566 nm. […] SN-38G concentrations were determined as the increase in SN-38 concentrations following incubation with glucuronidase.
The plasma concentration-time data of CPT-11, SN-38 and SN-38G were analyzed by non-compartmental analysis using PCNONLIN (SCI, Lexington, Ky.). The area under the plasma concentration-time curve (AUC) from time zero (predose) to the time of the last quantifiable concentration (AUCt) was calculated by the trapezoidal rule. The AUC extrapolated to time infinity (AUCt →.infin.) was estimated by dividing the last quantifiable concentration by the terminal rate constant obtained by the log-linear regression of the terminal elimination phase. The AUC was the summation of AUCt and AUCt→.infin.. Clearance (CL) was estimated as the ratio of the dose and AUC.
The present study employed this principle to obtain an estimate of SN-38 excreted in the bile. Since glucuronidation is the major pathway of elimination of SN-38, the fraction of SN-38 not conjugated would be primarily excreted in the bile. The net biliary concentration of SN-38 would then be a resultant of its formation and elimination. This concentration was expressed as the "biliary ratio" which was the ratio of AUC of SN-38 to SN-38G. To control for individual variability in the amount of available drug, the ratio was multiplied by the AUC of CPT-11 to obtain a "biliary index" of SN-38.
The nonparametric Mann-Whitney test was employed to test for differences in pharmacokinetic outcomes between two patient groups, defined by the worst severity of diarrhea experienced in the first two cycles of CPT-11 treatment. Statistical tests were performed in the Number Cruncher Statistical System (Dr. Jerry Hintz, Kaysville, Utah). A two-sided significance level of less than or equal to 0.05 was considered statistically significant.

Where “and” joins values, the source holds several entries; their conditions need not be identical. Equal values may be shown once. Entries after “also recorded” stand apart in the source; their conditions may differ. Some results are limits rather than exact numbers.

`CC[C@@]1(O)C(=O)OCc2c1cc1n(c2=O)Cc2cc3ccccc3nc2-1` [Camptothecin]: the “concentration producing nicks in the DNA” value in the series on DNA topoisomerase 1 is reported as “about 0.5 μM”. Besides, in the series with tumors, the antitumor activity reduction entry is “about 10 fold”. In series [1], the “dose-limiting toxicity in early clinical trials” value was “severe dose-limiting hemorrhagic cystitis and unpredictable myelosuppression”.

For `O.O=P1(N(CCCl)CCCl)NCCCO1` (stereo not shown) [Cyclophosphamide, 2H-1,3,2-Oxazaphosphorin-2-amine, N,N-bis(2-chloroethyl)tetrahydro-, 2-oxide, monohydrate], in [2], the stability result is recorded as “stable in the gastrointestinal tract”.

Consider `CC[C@H](C)[C@H]1O[C@]2(CC[C@@H]1C)C[C@@H]1C[C@@H](C/C=C(\C)[C@@H](O[C@H]3C[C@H](OC)[C@@H](O[C@H]4C[C@H](OC)[C@@H](O)[C@H](C)O4)[C@H](C)O3)[C@@H](C)/C=C/C=C3\CO[C@@H]4[C@H](O)C(C)=C[C@@H](C(=O)O1)[C@]34O)O2` [Ivermectin], for which, in [3] (single dose), the cure of strongyloidiasis entry was “can cure human strongyloidiasis”. Also, the “reduction of microfilaria in skin and ocular tissues” value in series [3] (single oral dose 0.15 to 0.20 mg/kg) is “rapid and marked reduction”. Also, the “time to peak plasma concentration” value in series [4] (oral) is at most 4 h. For the same compound, the half-life result in series [4] (plasma or terminal half-life) was “about 10 hours”. In addition, the “sensitivity of p-glycoprotein-disrupted mice” value in the series with p-glycoprotein [5] is on record as “increased sensitivity”.

Take `Cc1c(-c2cnccn2)ssc1=S` [Oltipraz, 4-methyl-5(2-pyrazinyl)-3H-1,2-dithiole-3-thione]: the “induction of phase II enzymes / glucuronidation” value in the series on glucuronosyltransferase was “inducer of GST and UDP-glucuronosyltransferase”.

With `C/C=C/C[C@@H](C)C(=O)[C@H]1C(=O)N[C@@H](C(C)C)C(=O)N(C)CC(=O)N(C)[C@@H](CC(C)C)C(=O)N[C@@H](C(C)C)C(=O)N(C)[C@@H](CC(C)C)C(=O)N[C@@H](C)C(=O)N[C@H](C)C(=O)N(C)[C@@H](CC(C)C)C(=O)N(C)[C@@H](CC(C)C)C(=O)N(C)[C@@H](C(C)C)C(=O)N1C` [SDZ PSC 833], the “inhibition of / interaction with p-glycoprotein” value in the series on p-glycoprotein [6] is listed as “inhibited p-glycoprotein; also recorded: effective inhibitor; also recorded: effective at inhibiting p-glycoprotein”. Besides, the “persistence of p-glycoprotein inhibition” value with p-glycoprotein [6] (single pulse exposure) is on record as “still exhibiting inhibition of p-glycoprotein function even two days after a single pulse exposure”. Moreover, in the series on p-glycoprotein [6] (vs verapamil, cyclosporine A, progesterone or anthracycline analogues), the “p-glycoprotein inhibition relative to comparator” value is recorded as “more effective than cyclosporine A; also recorded: stronger inhibitors than verapamil”. For the same compound, the “effect of acidic extracellular conditions on inhibitory activity” value in the series with p-glycoprotein [7] (acidic pH) was “not affected by acidic extracellular conditions”. Also, in the series with p-glycoprotein [7], the “inhibition of vinblastine transport” value was “the most effective inhibitor”; the lowest inhibitory concentration is 10 ng/ml and 9 nM. Besides, in series [8], the “activity relative to cyclosporine A in restoring drug sensitivity” value is given as “at least one order of magnitude more active than cyclosporine A”.

For `CCc1c2c(nc3ccc(O[C@@H]4O[C@H](C(=O)O)[C@@H](O)[C@H](O)[C@H]4O)cc13)-c1cc3c(c(=O)n1C2)COC(=O)[C@]3(O)CC` [SN-38G], in series [9], the “biliary radioactivity excreted over 24 h as” value is 22%. Besides, the “Overall Increase in AUC SN-38G” value in the series on p-glycoprotein [10] stood at 1.93 fold. Besides, the “increase of AUC from 100 to 175 mg/m^2” value in series [11] (1.75 fold dose range) is on record as 2.7 fold. Further, the “urinary estimates of SN-38G, fold lower in patients with grade 3-4 diarrhea (average)” value in series [11] (grade 3-4 diarrhea) is given as 2.5 fold. The “increase in AUC between 145 and 175 mg/m^2” value in series [11] (in vivo) is “no increase”.
